Measurements published in patent US10457639B2, “Fluorescent regulators of RASSF1A expression and human cancer cell proliferation” (GEORGETOWN UNIVERSITY, priority 2008, dated 2019).
Like-named read-outs stand apart in the source and are kept apart here.

Experiments:
PC3 cells = assay: Cell growth assay, trypan blue dye exclusion count; format: cell-based
Procedure: Cell Line and Cell Growth Assay. Human prostate cancer cell line PC-3 was procured from the American Type Cell Culture Collection (Manassas, Va.). Cells were grown in IMEM without phenol red (Invitrogen, Carlsbad, Calif.) with 10% fetal bovine serum, 2 mM glutamine, 100 U/mL penicillin G sodium, and 100 μg/mL streptomycin sulfate (Sigma, St. Louis, Mo.) in the presence of 5% CO2 at 37° C. For the cell growth experiment, PC-3 cells were seeded in 6-well plates in triplicate with an initial density of 2×10^3 cells per well. Twenty-four hours after seeding, the attached cells were treated with vehicle (DMSO) or 1, 5, 15, 30 and 60 μM compound. After another twenty-four hours, the cells were washed with 1×PBS, trypsinized and re-suspended in complete growth medium. Trypan blue (0.4%) was added to the cell suspension and both live and dead cells were counted using a hemocytometer.
Compounds 6-10 were screened for growth inhibition in PC-3 human prostate cancer cells using previously reported methods (Table 1; Sinha et al. The Prostate. 2006, 66, 1257-1265). […] This was unexpected, since the methyl moiety of mahanine is in the 3-position. Compound 9, with its GI50 value near that of the compound 6 series (compounds 6, 6a, 8) and a deprotected hydroxyl group in the 2-position, implies that whatever hindrance is imposed by a methyl in the 3-position can be partially overcome if steric bulk at the 2-position is reduced. Indeed, looking at the structure of mahanine, the restraint of the ether cycle may provide enough reduction of apparent bulk at the 2-position to moderate its methyl in the 3-position. Additionally, the ether ring system puts the equivalent of a methyl group in the 1-position, which could also be aiding in the low μM activity of mahanine, if the relatively lower values for the compound 6 series are any indication. Moreover, analyzing the structure of compound 10 based on the same criteria, the double-bonded carbon of the ether cycle in the 3-position along with bulk off the 2-position might explain its lesser growth inhibition when compared to mahanine, while the methyl in the 1-position still gives it better activity than compounds 7 and 7a.

RASSF1A = assay: RT-PCR of RASSF1A mRNA in treated PC-3 cells; format: cell-based, human
Procedure: (§1) Representative photograph of an experiment repeated thrice. PC-3 cells were treated 24 hours with either 15 μM for compounds 6, 7, 7a, 8, 9, 10 or 5 μM for compound KED-4-69 (compound 6a) before RNA extraction and RT-PCR amplification.
(§2) Reverse Transcriptase-polymerase Chain Reaction (RT-PCR). From PC-3 cells incubated 24 hours with either 15 μM of compound 6, 7, 7a, 8, 9, 10 or 5 μM of KED-4-69 (compound 6a), RNA was extracted with TRIzol solution (Invitrogen, Carlsbad, Calif.) and genes of interest were amplified using 500 ng of total RNA reverse-transcribed to cDNA using a Superscript II kit (Invitrogen) with random hexamers. Human-specific primers were designed using the Primer Quest program and purchased from Integrated DNA Technologies, Inc. (Coralville, Iowa). Their sequences and product band sizes are: cyclin D1 forward primer 5′-[…]-3′ (SEQ ID NO:1), cyclin D1 reverse primer 5′-[…]-3′ (SEQ ID NO:2) (475 bp) and GAPDH forward primer: 5′-CCA […]-3′ (SEQ ID NO:3), GAPDH reverse primer: 5′-TCTAGACGGCAG GTCAGGTCCACC-3′ (SEQ ID NO:4) (598 bp). PCRs were initiated at 94° C. for 2 min, followed by 28 cycles of 94° C. for 1 min, 1 min annealing temperature, 72° C. for 1 min, and final extension at 72° C. for 5 min. The annealing temperature for cyclin D1 and GAPDH was 60° C. Primers and PCR conditions for RASSF1A are used as described by Rong et al. (Oncogene. 2004, 23, 8216-8230). After amplification, PCR products were separated on 1.5% agarose gels and visualized by ethidium bromide fluorescence using the Fuji LAS-1000 Imager. Images were captured and imported to Adobe Photoshop. Band intensities were quantified by using ImageJ software (NIH, Bethesda, Md.).
(§3) It has been reported that mRNA levels of RASSF1A correlate to its protein expression levels (Rong et al. Oncogene, 2004, 23: 8216-8230). To investigate the effects of the synthetic compounds on RASSF1A and cyclin D1 expression, levels of the respective mRNAs in treated cells compared to control were analyzed (FIG. 3). […] Because overexpression of cyclin D1 is associated with tumorigenicity and proliferation in a variety of tumors, including prostate cancers, this downregulation provides a cancer treatment method (Chen, Y. et al. Oncogene. 1998, 16, 1913-1920; Musgrove, E. A. et al. Proc. Natl. Acad. Sci. USA. 1994, 91, 8022-8026).

cyclin D1 = assay: RT-PCR of cyclin D1 mRNA in treated PC-3 cells; format: cell-based, human
Procedure: as §1, §2, §3

PC-3 cells = assay: BrdU labeling, DNA synthesis (Cell Proliferation ELISA BrdU); format: cell-based, human; settings: 5 μM compound, 24 hours
Procedure: PC-3 cells were plated in 96-well plates and treated with 5 μM of compound. After 24 hours, the cells were assayed for BrdU labeling using the Cell Proliferation ELISA BrdU kit from Roche; background BrdU incorporation levels (absent anti-BrdU-peroxidase solution) were subtracted and values were normalized to those of control untreated cells.
BrdU Labeling. For the BrdU experiment, PC-3 cells were seeded in 96-well plates at a density of 2×10^3 cells/well, treated with 5 μM of compound for 24 hr and assayed BrdU using the Cell Proliferation ELISA BrdU (chemiluminescence) (Roche Diagnostics, IN) kit according to the manufacturer's protocol. Briefly, 10 μL of 100 μM BrdU labeling solution was added to the cultured cells and were incubated for 1 hr at 37° C., the labeling solution was removed and the FixDenat solution provided with the kit was added for 30 min and incubated at room temperature. Cells were then incubated with anti-BrdU conjugated to peroxidase (1:1500) for 60 min. Finally, the plates were washed and 100 μL of substrate solution was added to each well, and the light emission was measured using a microplate luminometer (Harta Instruments, Inc., Gaithersburg, Md.).
To assess the levels of DNA synthesis within cells treated with mahanine compared to those treated with compounds 6-10, cultured cells were treated according to standard procedure with 5-bromo-2-deoxy-uridine (BrdU) after 24 hours of treatment (FIG. 2).

[1] = tested on: DNA methyltransferase (DNMT); assay: DNA methyltransferase activity assay (EpiQuik kit, nuclear extracts of treated PC-3 cells); format: cell-based, human; settings: 72 hours
Procedure: Black bars: PC-3 cells were treated 72 hours with either mahanine or compound 6a at 5 μM or compound 6, 7, 7a, 8, or 9 at 15 μM and then assayed for DNMT activity using the DNMT activity kit from Epigentek. Data are mean of three independent experiments ±SEM. Grey bars: Densitometry from RT-PCR blot where the amount of RASSF1A mRNA re-expressed by mahanine treatment is normalized to 100%.
DNA methyltransferase activity assay. PC-3 cells were plated in complete growth media, treated with either mahanine or compound 6a at 2 μM or compound 6, 7, 7a, 8, 9, 10 at 15 μM for 3 days and then harvested. Nuclear extracts were prepared according to manufacturer's protocol (Nuclear extraction kit, Epigentek). DNMT activity was measured using an EpiQuik DNA methyltransferase activity assay kit (Epigentek). Results were expressed as percent DNMT activity compared to the DMSO control as 100%.
The levels of DNMT activity in treated versus untreated prostate cancer cells were measured using a DNMT assay kit from Epigentek. […] These reduced DNMT activities correlate with the pattern of RASSF1A induction described above (FIG. 7, grey bars). The data imply that inhibition of DNMT prevents hypermethylation of the RASSF1A promoter region and consequently restores RASSF1A.

[2] = Homo sapiens, PC-3, concentration for 50% growth inhibition in PC3 cells, 24 hours of treatment, mean ± SEM of three observations, read-out: GI50
[3] = mahanine, concentration not given

Row | Molecule | GI50 (PC3 cells; [2]) [µM] | RASSF1A mRNA level versus control (RASSF1A; 15 μM, 24 hours) | cyclin D1 mRNA level versus control (cyclin D1; 15 μM, 24 hours) | DNA synthetic ability (BrdU labeling) (PC-3 cells) | DNMT activity versus DMSO control ([1]; 15 μM) | further results
1 | COc1ccc2c(c1)[nH]c1cc(OS(=O)(=O)c3cccc4c(N(C)C)cccc34)c(C)cc12 [Compound 7a, 7-Methoxy-3-methyl-9H-carbazol-2-yl 5-(dimethylamino)naphthalene-1-sulfonate] | 22.9 ± 4.5 | no change in expression levels from control | no change in expression levels from control | – | – | –
2 | COc1ccc2c(c1)[nH]c1cc(OCc3ccccc3)c(C)cc12 [Compound 7, 2-(benzyloxy)-7-methoxy-3-methyl-9H-carbazole] | 48.9 ± 1.1 | no change in expression levels from control | no change in expression levels from control | – | – | –
3 | COc1ccc2c(c1)[nH]c1c(C)c(O)ccc12 [Compound 8, 7-Methoxy-1-methyl-9H-carbazol-2-ol] | – | – | – | no change in the DNA synthetic ability | slight decrease in DNMT activity | GI50 (PC3 cells; Homo sapiens, PC-3, 24 h): 18.7 ± 1.8 µM
4 | COc1ccc2c(c1)[nH]c1c(C)c(OCc3ccccc3)ccc12 [Compound 6, 2-(Benzyloxy)-7-methoxy-1-methyl-9H-carbazole] | 17.6 ± 2.7 | significant increase in RASSF1A | corresponding decrease in cyclin D1 | decrease in DNA synthetic ability | Significant inhibition of DNMT activity | –
5 | mahanine [reference compound] | – | – | – | decrease in DNA synthetic ability | – | doses at which cytotoxic (PC3 cells; PC-3 cells): above 5 μM; GI50 (PC3 cells; concentration for 50% growth inhibition in PC3 cells, 24 hours of treatment, mean ± SEM of three observations, read-out: GI50): 2.5 ± 0.18 µM; RASSF1A mRNA level versus control (RASSF1A; [3]): significant increase in RASSF1A; cyclin D1 mRNA level versus control (cyclin D1; [3]): corresponding decrease in cyclin D1; DNMT activity versus DMSO control ([1]; 5 μM (FIG. 7 legend; method says 2 μM)): Significant inhibition of DNMT activity
6 | COc1ccc2c(c1)[nH]c1cc(O)c(C)cc12 [Compound 9, 7-Methoxy-3-methyl-9H-carbazol-2-ol] | 15.3 ± 2.8 | – | – | decrease in DNA synthetic ability | slight decrease in DNMT activity | –
